From patent US12396459B2, “Synergistically effective herbicide composition comprising pyridate and at least one defined 4-HPPD inhibitor” (BELCHIM CROP PROTECTION NV, priority 2018, dated 2025)
Read-outs that look alike come from different tables or passages of the source.

Columns and labels:
Assay type in all cases: in vivo
Abutilon theophrasti = assay: Field trial post-emergence in maize: ABUTH; details: 31-48 DAA; # = 2; g a.c./ha: PYR 300, MES 100, PYR + MES 300 + 90
Method: (§1) Herbicidal activity of herbicide compositions according to the first aspect of the present invention with regard to different types of unwanted vegetation was determined during trials performed on test fields (field trials). Individual compositions comprising pyridate and individual compositions comprising a defined 4-HPPD inhibitor are compared with a herbicide composition according to the invention comprising both pyridate and a defined 4-HPPD inhibitor. The expected activity of the combination of the active compounds pyridate and a defined 4-HPPD inhibitor is calculated according to above mentioned calculation method by Colby, in order to evaluate a synergistic effect between pyridate and a defined 4-HPPD inhibitor.
(§2) Herbicidal activity was determined by applying herbicide compositions on emerged unwanted vegetation on fields where maize was cultivated. Pyridate and a defined 4-HPPD inhibitor were applied as a tank mixture by mixing these active compounds prior to use in a spray tank. The corresponding mixture was in the form of a spray liquor. […] At a specified number of days after application (DAA), the degree of damage to the unwanted vegetation is rated in % of plants of unwanted vegetation that were killed, which was assessed by visually controlling the plants.

Capsella bursa-pastoris = assay: Field trial post-emergence in maize: CAPBP
Method: as §1
(§3) Herbicidal activity was determined by applying herbicide compositions on emerged unwanted vegetation on fields where maize was cultivated. Pyridate and a defined 4-HPPD inhibitor were applied as a tank mixture by mixing these active compounds prior to use in a spray tank. The corresponding mixture was in the form of a spray liquor. Besides, spray liquors of individual compositions comprising pyridate and of individual compositions comprising a defined 4-HPPD inhibitor were used. Test plants of unwanted vegetation with a growth stage corresponding to BBCH 10-18 (according to the extended BBCH-scale) were sprayed with the active compound preparations such that particular desired amounts of active compounds are applied per unit area. Spray liquor was diluted with water to arrive at an application volume of 50 to 450 L/ha. At a specified number of days after application (DAA), the degree of damage to the unwanted vegetation is rated in % of plants of unwanted vegetation that were killed, which was assessed by visually controlling the plants.

Echinochloa crus-galli = assay: Field trial post-emergence in maize: ECHCG; details: for herbicidal effect (h.e.): g a.c./ha: PYR 300, MES 100, PYR + MES 300 + 90
Method: as §1, §3

Papaver rhoeas = assay: Field trial post-emergence in maize: PAPRH; details: # = 1, g a.c./ha: PYR 300, MES 100, PYR + MES 300 + 90
Method: as §1, §3

Poa annua = assay: Field trial post-emergence in maize: POAAN; details: for herbicidal effect (h.e.): g a.c./ha: PYR 300, MES 100, PYR + MES 300 + 90
Method: as §1, §3

Fallopia convolvulus = assay: Field trial post-emergence in maize: POLCO
Method: as §1, §3

Stachys arvensis = assay: Field trial post-emergence in maize: STAAR; details: 7-14 DAA; # = 1; g a.c./ha: PYR 300, MES 100, PYR + MES 300 + 90
Method: as §1, §2

Xanthium spinosum = assay: Field trial post-emergence in maize: XANSP; details: 7-14 DAA; # = 3; g a.c./ha: PYR 300, MES 100, PYR + MES 300 + 90
Method: as §1, §2

Chenopodium album = assay: Examples 6-8 herbicidal effect: CHEAL; details: 7 DAA
Digitaria sanguinalis = assay: Examples 6-8 herbicidal effect: DIGSA; details: 7 DAA
[1] = tested on: unwanted vegetation (UVEG); assay: Field trials Examples 1-5 (incl. Table 1), post-emergence on unwanted vegetation in maize; details: 14-20 DAA
Method: as §1, §3

Mercurialis annua = assay: Field trial post-emergence in maize: MERAN
Method: as §1, §3
(§4) Example 1 concerns a herbicide composition comprising a combination of pyridate and mesotrione, which was applied post-emergence on unwanted vegetation on a field where maize was cultivated, according to the test conditions mentioned above.

Rumex obtusifolius = assay: Field trial post-emergence in maize: RUMOB
Method: as §1, §3, §4

[2] = g a.c./ha: MES 50, PYR + SMO 300 + 800
[3] = g a.c./ha: MES 80, PYR + MES 300 + 50

## CS(=O)(=O)c1ccc(C(=O)C2C(=O)CCCC2=O)c([N+](=O)[O-])c1 [MES, 2-(4-methylsulfonyl-2-nitrobenzoyl) cyclohexane-1,3-dione]
Abutilon theophrasti
  herbicidal effect (h.e.): 91%
Capsella bursa-pastoris
  MES h.e.: 97%
Capsella bursa-pastoris; 7-14 DAA, # = 3, g a.c./ha: PYR 300, MES 100, PYR + MES 300 + 90
  herbicidal effect (h.e.): 90%
Capsella bursa-pastoris; CAPBP 14-20 DAA 300 g a.c./ha
  MES h.e.: 97%
Capsella bursa-pastoris; CAPBP 14-20 DAA 600 g a.c./ha
  MES h.e.: 97%
Capsella bursa-pastoris; CAPBP 24-31 DAA 45 g a.c./ha
  MES h.e.: 97%
Echinochloa crus-galli; 7-14 DAA, # = 9
  herbicidal effect (h.e.): 67%
Echinochloa crus-galli; 18-28 DAA, # = 14
  herbicidal effect (h.e.): 51%
Echinochloa crus-galli; 31-48 DAA, # = 13
  herbicidal effect (h.e.): 50%
Echinochloa crus-galli; ECHCG 14-20 DAA 45 g a.c./ha
  MES h.e.: 86%
Echinochloa crus-galli; ECHCG 14-20 DAA 90 g a.c./ha
  MES h.e.: 95%
Echinochloa crus-galli; ECHCG 14-20 DAA 135 g a.c./ha
  MES h.e.: 97%
Echinochloa crus-galli; ECHCG 24-31 DAA 45 g a.c./ha
  MES h.e.: 80%
Echinochloa crus-galli; ECHCG 24-31 DAA 90 g a.c./ha
  MES h.e.: 95%
Echinochloa crus-galli; ECHCG 24-31 DAA 135 g a.c./ha
  MES h.e.: 97%
Papaver rhoeas; 18-28 DAA
  herbicidal effect (h.e.): 80%
Papaver rhoeas; 31-48 DAA
  herbicidal effect (h.e.): 89%
Poa annua; 7-14 DAA, # = 2
  herbicidal effect (h.e.): 39%
Poa annua; 18-28 DAA, # = 3
  herbicidal effect (h.e.): 36%
Poa annua; 31-48 DAA, # = 2
  herbicidal effect (h.e.): 27%
Poa annua; POAAN 14-20 DAA 45 g a.c./ha
  MES h.e.: 24%
Poa annua; POAAN 14-20 DAA 90 g a.c./ha
  MES h.e.: 48%
Poa annua; POAAN 14-20 DAA 135 g a.c./ha
  MES h.e.: 58%
Poa annua; POAAN 24-31 DAA 45 g a.c./ha
  MES h.e.: 17%
Poa annua; POAAN 24-31 DAA 90 g a.c./ha
  MES h.e.: 22%
Poa annua; POAAN 24-31 DAA 135 g a.c./ha
  MES h.e.: 38%
Fallopia convolvulus; 7-14 DAA, # = 5, g a.c./ha: PYR 300, MES 100, PYR + MES 300 + 90
  herbicidal effect (h.e.): 68%
Fallopia convolvulus; 13-14 DAA, # = 1, g a.c./ha: PYR 450, MES 144, PYR + MES 450 + 144
  herbicidal effect (h.e.): 92%
Fallopia convolvulus; 18-28 DAA, # = 8, g a.c./ha: PYR 300, MES 100, PYR + MES 300 + 90
  herbicidal effect (h.e.): 77%
Fallopia convolvulus; 31-48 DAA, # = 8, g a.c./ha: PYR 300, MES 100, PYR + MES 300 + 90
  herbicidal effect (h.e.): 68%
Fallopia convolvulus; POLCO 14-20 DAA 45 g a.c./ha
  MES h.e.: 77%
Fallopia convolvulus; POLCO 14-20 DAA 90 g a.c./ha
  MES h.e.: 89%
Fallopia convolvulus; POLCO 24-31 DAA 45 g a.c./ha
  MES h.e.: 80%
Fallopia convolvulus; POLCO 24-31 DAA 135 g a.c./ha
  MES h.e.: 97%
Stachys arvensis
  herbicidal effect (h.e.): 54%
Xanthium spinosum
  herbicidal effect (h.e.): 97%
Chenopodium album; [2]
  herbicidal effect (h.e.): 77%
Chenopodium album; [3]
  herbicidal effect (h.e.): 92%
Digitaria sanguinalis; [2]
  herbicidal effect (h.e.): 95%
Digitaria sanguinalis; [3]
  herbicidal effect (h.e.): 92%
[1]; VIOAR (Viola arvensis), # = 3, first VIOAR block (r259-264), MES 135 g a.c./ha
  MES h.e. (%): 98%
[1]; VIOAR, # = 3, second VIOAR block (r265-272), MES 45 g a.c./ha
  MES h.e. (%): 70%
[1]; VIOAR, # = 3, second VIOAR block (r265-272), MES 90 g a.c./ha
  MES h.e. (%): 84%
[1]; VIOAR, # = 3, second VIOAR block (r265-272), MES 135 g a.c./ha
  MES h.e. (%): 87%
Mercurialis annua; MERAN 14-20 DAA 45 g a.c./ha
  MES h.e.: 95%
Mercurialis annua; MERAN 24-31 DAA 45 g a.c./ha
  MES h.e.: 70%
Rumex obtusifolius; RUMOB 14-20 DAA 45 g a.c./ha
  MES h.e.: 87%
Rumex obtusifolius; RUMOB 14-20 DAA 90 g a.c./ha
  MES h.e.: 95%
Rumex obtusifolius; RUMOB 14-20 DAA 135 g a.c./ha
  MES h.e.: 95%
